{"source": "paper PMC12951562", "about": "“SH2scan: Mapping SH2 Domain-Ligand Binding Selectivity for Inhibitors and Degraders” (Journal of Medicinal Chemistry, 2026)", "experiment_in_all_cases": "biochemical", "format_in_all_cases": "binding", "key": {"MATK": {"molecular_target": "T1, MATK (Homo sapiens, UniProt P42679)", "T1 construct": "the DNA-tagged SH2 domain concentrations used in this study were <0.1 nM; made in house; host or cells: HEK293 (transient transfection, unpurified extract)", "T1 sequence (P42679 122-211 limits assumed)": "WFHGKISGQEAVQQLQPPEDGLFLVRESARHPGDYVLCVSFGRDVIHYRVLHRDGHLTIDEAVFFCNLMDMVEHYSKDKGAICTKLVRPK"}, "LCK": {"molecular_target": "T2, LCK (Homo sapiens, UniProt P06239)", "T2 construct": "the DNA-tagged SH2 domain concentrations used in this study were <0.1 nM; made in house; host or cells: HEK293 (transient transfection, unpurified extract)", "T2 sequence (P06239 127-224 limits assumed)": "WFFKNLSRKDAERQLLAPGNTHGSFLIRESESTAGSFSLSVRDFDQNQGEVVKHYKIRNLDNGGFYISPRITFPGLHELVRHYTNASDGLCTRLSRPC"}, "HCK": {"molecular_target": "T3, HCK (Homo sapiens, UniProt P08631)", "T3 construct": "the DNA-tagged SH2 domain concentrations used in this study were <0.1 nM; made in house; host or cells: HEK293 (transient transfection, unpurified extract)", "T3 sequence (P08631 144-241 limits assumed)": "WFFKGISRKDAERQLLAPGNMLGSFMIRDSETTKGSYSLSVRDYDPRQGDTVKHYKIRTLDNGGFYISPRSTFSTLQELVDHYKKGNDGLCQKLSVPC"}, "SRC": {"molecular_target": "T4, SRC (Homo sapiens, UniProt P12931)", "T4 construct": "made in house; host or cells: HEK293 (transient transfection), unpurified extract", "T4 sequence (P12931 whole entry)": "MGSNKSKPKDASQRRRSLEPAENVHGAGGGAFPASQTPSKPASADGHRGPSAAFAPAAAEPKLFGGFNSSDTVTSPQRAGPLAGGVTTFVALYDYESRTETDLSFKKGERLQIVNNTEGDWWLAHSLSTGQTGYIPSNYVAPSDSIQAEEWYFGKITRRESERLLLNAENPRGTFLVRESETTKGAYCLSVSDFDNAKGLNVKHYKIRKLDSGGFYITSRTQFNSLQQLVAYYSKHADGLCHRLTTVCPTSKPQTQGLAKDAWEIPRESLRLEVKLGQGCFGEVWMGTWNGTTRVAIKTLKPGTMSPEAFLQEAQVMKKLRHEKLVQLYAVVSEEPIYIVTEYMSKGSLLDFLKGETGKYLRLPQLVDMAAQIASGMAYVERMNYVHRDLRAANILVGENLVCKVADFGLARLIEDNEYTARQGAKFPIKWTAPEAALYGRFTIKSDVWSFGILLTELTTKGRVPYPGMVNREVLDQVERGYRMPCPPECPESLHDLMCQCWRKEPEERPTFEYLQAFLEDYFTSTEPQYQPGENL"}}, "note": "Non-standard residues stand in square brackets, D forms with d. Residues, ends and D or L forms follow the SMILES beside them. pY = N[C@@H](Cc1ccc(OP(=O)(O)O)cc1)C(=O)O"}
{"smiles": "CC[C@H](C)[C@H](NC(=O)[C@H](CS)NC(=O)[C@H](CCCNC(=N)N)NC(C)=O)C(=O)N[C@@H](CC(N)=O)C(=O)N[C@@H](Cc1ccc(OP(=O)(O)O)cc1)C(=O)N[C@H](C(=O)N[C@@H](Cc1ccccc1)C(=O)N[C@@H](Cc1ccccc1)C(=O)N1CCC[C@H]1C(=O)N[C@@H](CO)C(=O)N[C@@H](CC(C)C)C(=O)N[C@@H](CCCCN)C(=O)N1CCC[C@H]1C(=O)N[C@@H](CO)C(=O)N[C@@H](CO)C(N)=O)C(C)C", "values": [{"measurement": "Kd", "setting": "MATK", "result": "555 ± 128", "unit": "nM"}]}
{"smiles": "CC[C@H](C)[C@H](NC(=O)[C@@H]1CCCN1C(=O)[C@@H](NC(=O)[C@H](CCC(=O)O)NC(=O)[C@H](CCC(=O)O)NC(=O)[C@H](Cc1ccc(OP(=O)(O)O)cc1)NC(=O)[C@H](CCC(N)=O)NC(=O)[C@@H]1CCCN1C(=O)[C@H](CCC(=O)O)NC(C)=O)[C@@H](C)CC)C(=O)N[C@@H](Cc1ccc(O)cc1)C(=O)N[C@@H](CC(C)C)C(N)=O", "note": "(Ac-EPQ[pY]EEIPIYL-NH2)", "values": [{"measurement": "Kd", "setting": "LCK", "result": "97 ± 51.6", "unit": "nM"}, {"measurement": "Kd", "setting": "HCK", "result": "1440 ± 475", "unit": "nM"}, {"measurement": "Kd", "setting": "SRC", "result": "2710 ± 1950", "unit": "nM"}]}
